Experimental data: patent US9012433B2, “Substituted tetracycline compounds” (Paratek Pharmaceuticals, Inc., priority 2006, dated 2015)
In brackets after ≈: the same amount, converted by molar mass.

What was measured:
Assay type in all cases: cell-based
[1] = test system: B. thetaiotaomicron ATCC 29741; assay: Antibacterial MIC, CLSI broth microdilution; conditions: Bacteroides thetaiotaomicron, ATCC29741; 35° C., 18-24 hours; read-out: MIC B. thetaiotaomicron ATCC 29741
Experimental: (§1) Grain (−) and gram (+) antibacterial minimum inhibitory concentration (MIC) values (μg/mL) were obtained using CLSI methodology for anti-bacterial susceptibility testing. On each day of testing, serial dilutions of compounds were prepared in microdilution plates using a Tecan robotic workstation. Mueller Hinton broth cultures of representative sensitive and resistant gram negative strains were grown or adjusted to match the turbidity of a 0.5 McFarland standard. 1:200 dilutions were made in an appropriate broth (cation supplemented Mueller Hinton broth) to allow a final inoculum of 1×10^5 cfu. Plates were incubated at 35° C. in ambient air for 18-24 hours, were read spectrophotometrically and checked manually for evidence of bacterial growth. The lowest dilution of compound that inhibited growth was recorded as the MIC. Lysed horse blood was used to supplement broth for testing S. pneumoniae. The MIC's for each compound were assessed against S. aureus, S. pneumoniae, P. acnes, E. coli and B. theta.

[2] = test system: E. coli ATCC 25922; assay: Antibacterial MIC, CLSI broth microdilution; conditions: Escherichia coli, ATCC25922; 35° C., 18-24 hours
Experimental: as §1

[3] = test system: E. coli MG 1655; assay: Antibacterial MIC, CLSI broth microdilution; conditions: Escherichia coli, MG1655; 35° C., 18-24 hours
Experimental: as §1

[4] = test system: P. acnes ATCC 11827; assay: Antibacterial MIC, CLSI broth microdilution; conditions: Cutibacterium acnes, ATCC11827; 35° C., 18-24 hours
Experimental: as §1

[5] = test system: P. acnes ATCC 6919; assay: Antibacterial MIC, CLSI broth microdilution; conditions: Cutibacterium acnes, ATCC6919; 35° C., 18-24 hours
Experimental: as §1

[6] = test system: S. aureus RN450; assay: Antibacterial MIC, CLSI broth microdilution; conditions: Staphylococcus aureus, RN450; 35° C., 18-24 hours
Experimental: as §1

[7] = test system: S. pneumoniae 157E - Strep; assay: Antibacterial MIC, CLSI broth microdilution; conditions: Streptococcus pneumoniae, 157ESTREP; 35° C., 18-24 hours; lysed horse blood
Experimental: as §1

[8] = in vitro
Experimental: Mammalian cell cytotoxicity was assessed to evaluate potential in vivo risks associated with the tetracycline compounds of the invention. A soluble, non-toxic redox dye (“Resazurin”; Alamar Blue) was used to assess a tetracycline compound's effect on cellular metabolism. At the onset of the experiment, cultures of mammalian COS-1 or CHO cells were washed, trypsinized, and harvested. […] On the next day, serial dilutions of test drug were prepared under sterile conditions and transferred to cell plates. Plates were then incubated under the above conditions for 24 hours. Following the incubation period, the media/drug was aspirated, and 50 μL of resazurin was added. Plates were then incubated under the above conditions for 2 hours and then in the dark at room temperature for an additional 30 minutes. Fluorescence measurements were taken (excitation 535 nm, emission 590 nm) and toxic effects in treated versus control cells were compared based on the degree of fluorescence in each well.

Row | SMILES | MIC [1] | MIC [2] | MIC [3] | MIC [4] | MIC [5] | MIC [6] | MIC [7] | IC50 at 24 h ([8]; African green monkey) | IC50 at 24 h ([8]; Chinese hamster)
1 | CN(C)[C@@H]1C(O)=C(C(N)=O)C(=O)[C@@]2(O)C(O)=C3C(=O)c4c(O)ccc(CNOC(C)(C)C)c4C[C@H]3C[C@@H]12 [AB] | 4 to 8 µg/mL (≈ 7.76 to 15.5 µM) | 4 to 8 µg/mL (≈ 7.76 to 15.5 µM) | > 8 µg/mL | < 4 µg/mL | < 4 µg/mL | < 4 µg/mL | < 4 µg/mL | < 35 µg/mL | < 35 µg/mL
2 | CN(C)[C@@H]1C(O)=C(C(N)=O)C(=O)[C@@]2(O)C(O)=C3C(=O)c4c(O)ccc(/C=N/n5cccc5)c4C[C@H]3C[C@@H]12 [AC, (4S,4aS,5aR,12aS)-4-Dimethylamino-3,10,12,12a-tetrahydroxy-1,11-dioxo-7-(pyrrol-1-yliminomethyl)-1,4,4a,5,5a,6,11,12a-octahydro-naphthacene-2-carboxylic acid amide] | 4 to 8 µg/mL (≈ 7.9 to 15.8 µM) | 4 to 8 µg/mL (≈ 7.9 to 15.8 µM) | > 8 µg/mL | < 4 µg/mL | < 4 µg/mL | < 4 µg/mL | < 4 µg/mL | < 35 µg/mL | < 35 µg/mL
3 | CCON(C)Cc1ccc(O)c2c1C[C@H]1C[C@H]3[C@H](N(C)C)C(O)=C(C(N)=O)C(=O)[C@@]3(O)C(O)=C1C2=O [AE] | 4 to 8 µg/mL (≈ 7.98 to 16 µM) | 4 to 8 µg/mL (≈ 7.98 to 16 µM) | > 8 µg/mL | < 4 µg/mL | < 4 µg/mL | < 4 µg/mL | < 4 µg/mL | > 75 µg/mL | < 35 µg/mL
4 | CCO/N=C(\C)CN(C)Cc1ccc(O)c2c1C[C@H]1C[C@H]3[C@H](N(C)C)C(O)=C(C(N)=O)C(=O)[C@@]3(O)C(O)=C1C2=O [AL, (4S,4aS,5aR,12aS)-4-Dimethylamino-7-[(2-ethoxyimino-propyl)-methyl-amino]-methyl-3,10,12,12a-tetrahydroxy-1,11-dioxo-1,4,4a,5,5a,6,11,12a-octahydro-naphthacene-2-carboxylic acid amide] | 4 to 8 µg/mL (≈ 7.19 to 14.4 µM) | 4 to 8 µg/mL (≈ 7.19 to 14.4 µM) | 4 to 8 µg/mL (≈ 7.19 to 14.4 µM) | < 4 µg/mL | < 4 µg/mL | < 4 µg/mL | < 4 µg/mL | < 35 µg/mL | < 35 µg/mL
5 | CCONCc1ccc(O)c2c1C[C@H]1C[C@H]3[C@@H](N(C)C)C(O)=C(C(N)=O)C(=O)[C@@]3(O)C(O)=C1C2=O [AM] | 4 to 8 µg/mL (≈ 8.2 to 16.4 µM) | > 8 µg/mL | > 8 µg/mL | < 4 µg/mL | < 4 µg/mL | 4 to 8 µg/mL (≈ 8.2 to 16.4 µM) | 4 to 8 µg/mL (≈ 8.2 to 16.4 µM) | > 75 µg/mL | > 75 µg/mL
6 | CCO/N=C(/CCN(C)C)c1ccc(O)c2c1C[C@H]1C[C@H]3[C@@H](N(C)C)C(O)=C(C(N)=O)C(=O)[C@@]3(O)C(O)=C1C2=O [AN, (4R,4aS,5aR,12aS)-4-Dimethylamino-7-(3-dimethylamino-1-ethoxyimino-propyl)-3,10,12,12a-tetrahydroxy-1,11-dioxo-1,4,4a,5,5a,6,11,12a-octahydro-naphthacene-2-carboxylic acid amide] | 4 to 8 µg/mL (≈ 7.19 to 14.4 µM) | < 4 µg/mL | < 4 µg/mL | < 4 µg/mL | < 4 µg/mL | < 4 µg/mL | < 4 µg/mL | > 75 µg/mL | > 75 µg/mL
7 | CN(C)[C@@H]1C(O)=C(C(N)=O)C(=O)[C@@]2(O)C(O)=C3C(=O)c4c(O)ccc(CN5CCCCO5)c4C[C@H]3C[C@@H]12 [DR] | 4 to 8 µg/mL (≈ 7.79 to 15.6 µM) | 4 to 8 µg/mL (≈ 7.79 to 15.6 µM) | > 8 µg/mL | < 4 µg/mL | < 4 µg/mL | < 4 µg/mL | < 4 µg/mL | 35 to 75 µg/mL (≈ 68.2 to 146 µM) | 35 to 75 µg/mL (≈ 68.2 to 146 µM)
8 | C/C(=N\OCC(F)(F)F)c1cc(N)c(O)c2c1C[C@H]1C[C@H]3[C@H](N(C)C)C(O)=C(C(N)=O)C(=O)[C@@]3(O)C(O)=C1C2=O [DT, (4S,4aS,5aR,12aS)-9-Amino-4-dimethylamino-3,10,12,12a-tetrahydroxy-1,1,1-dioxo-7-[1-(2,2,2-trifluoro-ethoxyimino)-ethyl]-1,4,4a,5,5a,6,11,12a-octahydro-naphthacene-2-carboxylic acid amide] | 4 to 8 µg/mL (≈ 7.04 to 14.1 µM) | 4 to 8 µg/mL (≈ 7.04 to 14.1 µM) | 4 to 8 µg/mL (≈ 7.04 to 14.1 µM) | < 4 µg/mL | < 4 µg/mL | < 4 µg/mL | < 4 µg/mL | – | –

Further lines, results first:

Row | MIC [1] | MIC [2] | MIC [3] | MIC [4] | MIC [5] | MIC [6] | MIC [7] | IC50 at 24 h ([8]; African green monkey) | IC50 at 24 h ([8]; Chinese hamster) | SMILES
9 | 4 to 8 µg/mL (≈ 7.64 to 15.3 µM) | > 8 µg/mL | > 8 µg/mL | < 4 µg/mL | < 4 µg/mL | < 4 µg/mL | 4 to 8 µg/mL (≈ 7.64 to 15.3 µM) | > 75 µg/mL | > 75 µg/mL | CN(C)[C@H]1C(O)=C(C(N)=O)C(=O)[C@@]2(O)C(O)=C3C(=O)c4c(O)ccc(CNOCC(F)F)c4C[C@H]3C[C@@H]12 [DY]
10 | > 8 µg/mL | > 8 µg/mL | > 8 µg/mL | 4 to 8 µg/mL (≈ 9.08 to 18.2 µM) | 4 to 8 µg/mL (≈ 9.08 to 18.2 µM) | < 4 µg/mL | < 4 µg/mL | > 75 µg/mL | > 75 µg/mL | CC(=O)c1cccc2c1C[C@H]1C[C@H]3[C@@H](N(C)C)C(O)=C(C(N)=O)C(=O)[C@@]3(O)C(O)=C1C2=O [D]
11 | 4 to 8 µg/mL (≈ 7.39 to 14.8 µM) | > 8 µg/mL | > 8 µg/mL | < 4 µg/mL | < 4 µg/mL | < 4 µg/mL | 4 to 8 µg/mL (≈ 7.39 to 14.8 µM) | > 75 µg/mL | > 75 µg/mL | CN(C)[C@H]1C(O)=C(C(N)=O)C(=O)[C@@]2(O)C(O)=C3C(=O)c4c(O)ccc(CNOCC(F)(F)F)c4C[C@H]3C[C@@H]12 [EA]
12 | 4 to 8 µg/mL (≈ 7.91 to 15.8 µM) | > 8 µg/mL | > 8 µg/mL | < 4 µg/mL | < 4 µg/mL | < 4 µg/mL | 4 to 8 µg/mL (≈ 7.91 to 15.8 µM) | – | – | CN(C)[C@H]1C(O)=C(C(N)=O)C(=O)[C@@]2(O)C(O)=C3C(=O)c4c(O)ccc(CNOCCF)c4C[C@H]3C[C@@H]12 [EB]
13 | – | > 8 µg/mL | > 8 µg/mL | – | – | < 4 µg/mL | < 4 µg/mL | – | – | CN(C)[C@@H]1C(O)=C(C(N)=O)C(=O)[C@@]2(O)C(O)=C3C(=O)c4c(O)ccc(CN5OCCC5=N)c4C[C@H]3C[C@@H]12 [EC]
14 | < 4 µg/mL | 4 to 8 µg/mL (≈ 7.53 to 15.1 µM) | 4 to 8 µg/mL (≈ 7.53 to 15.1 µM) | < 4 µg/mL | < 4 µg/mL | < 4 µg/mL | < 4 µg/mL | < 35 µg/mL | < 35 µg/mL | COC(=O)CONCc1ccc(O)c2c1C[C@H]1C[C@H]3[C@H](N(C)C)C(O)=C(C(N)=O)C(=O)[C@@]3(O)C(O)=C1C2=O [ED]
15 | > 8 µg/mL | 4 to 8 µg/mL (≈ 9.08 to 18.2 µM) | > 8 µg/mL | < 4 µg/mL | < 4 µg/mL | < 4 µg/mL | < 4 µg/mL | > 75 µg/mL | > 75 µg/mL | CC(=O)c1cccc2c1C[C@H]1C[C@H]3[C@H](N(C)C)C(O)=C(C(N)=O)C(=O)[C@@]3(O)C(O)=C1C2=O [E]
